# Laboratory results as given in US10196403B2, “Compounds and compositions and uses thereof” (Sunovion Pharmaceuticals Inc., priority 2016, dated 2019).
# System: mice
# Test: Neuropharmacological Assay (SmartCube)
# Type: in vivo
# Conditions: for minimal effective dose: Mus musculus, MED = dose having 50% or more total activity in SmartCube, read-out: POTENCY (minimal effective dose, MED); for AD: ADHD (SmartCube probability) / AG: analgesic (SmartCube probability) / AX: anxiolytic (SmartCube probability) / CE: cognitive enhancer (SmartCube probability) / DP: anti-depressant (SmartCube probability) / MS: mood stabilizer (SmartCube probability) / PS: anti-psychotic (SmartCube probability) / SD: sedative hypnotic (SmartCube probability) / UN: uncharacterized CNS activity (SmartCube probability): mice, i.p. 15 min before test, most efficacious dose(s) of 3 doses
# Outline: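 Compounds in NMP/PEG/propylene glycol given i.p. 15 min before automated video-based behavioral testing, at 3 doses; behavioral signature compared with a reference-compound database to give probability per drug class, reported at most efficacious dose. MED = dose (mpk) giving ≥50% total activity; doses typically 0.3–30 mpk.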
SMILES,minimal effective dose,AD: ADHD (SmartCube probability),AG: analgesic (SmartCube probability),AX: anxiolytic (SmartCube probability),CE: cognitive enhancer (SmartCube probability),DP: anti-depressant (SmartCube probability),MS: mood stabilizer (SmartCube probability),PS: anti-psychotic (SmartCube probability),SD: sedative hypnotic (SmartCube probability),UN: uncharacterized CNS activity (SmartCube probability)
"CNC[C@H]1OCC(F)(F)c2ccccc21 [Example 27, (S)-1-(4,4-difluoroisochroman-1-yl)-N-methylmethanamine]",10 to 30 mg/kg,+ (LOQ≤ + <5%),++ (5%≤ ++ <25%),++ (5%≤ ++ <25%),++ (5%≤ ++ <25%),++ (5%≤ ++ <25%),+ (LOQ≤ + <5%),+ (LOQ≤ + <5%),+ (LOQ≤ + <5%),+++ (25%≤ +++ <50%)
"CNC[C@@H]1OCC(F)(F)c2ccccc21 [Example 28, (R)-1-(4,4-difluoroisochroman-1-yl)-N-methylmethanamine]",< 3 mg/kg,+ (LOQ≤ + <5%),++ (5%≤ ++ <25%),++ (5%≤ ++ <25%),++ (5%≤ ++ <25%),++ (5%≤ ++ <25%),+ (LOQ≤ + <5%),+++ (25%≤ +++ <50%),++ (5%≤ ++ <25%),+++ (25%≤ +++ <50%)
"NC[C@@H]1OCCc2c(F)cccc21 [Example 29, (R)-(5-fluoroisochroman-1-yl)methanamine]",3 to 10 mg/kg,+ (LOQ≤ + <5%),++ (5%≤ ++ <25%),++ (5%≤ ++ <25%),++ (5%≤ ++ <25%),++++ (50%≤ ++++),+ (LOQ≤ + <5%),+ (LOQ≤ + <5%),+ (LOQ≤ + <5%),++ (5%≤ ++ <25%)
"CNC[C@H]1OCCc2c(F)ccc(F)c21 [Example 30, (S)-1-(5,8-difluoroisochroman-1-yl)-N-methylmethanamine]",3 to 10 mg/kg,+ (LOQ≤ + <5%),++ (5%≤ ++ <25%),++ (5%≤ ++ <25%),++ (5%≤ ++ <25%),++ (5%≤ ++ <25%),+ (LOQ≤ + <5%),++ (5%≤ ++ <25%),++ (5%≤ ++ <25%),+++ (25%≤ +++ <50%)
"CNC[C@@H]1OCCc2c(F)ccc(F)c21 [Example 31, (R)-1-(5,8-difluoroisochroman-1-yl)-N-methylmethanamine]",< 3 mg/kg,+ (LOQ≤ + <5%),++ (5%≤ ++ <25%),++ (5%≤ ++ <25%),++ (5%≤ ++ <25%),++++ (50%≤ ++++),+ (LOQ≤ + <5%),+ (LOQ≤ + <5%),+ (LOQ≤ + <5%),+ (LOQ≤ + <5%)
"CNC[C@H]1OCCc2c(Cl)cccc21 [Example 32, (S)-1-(5-chloroisochroman-1-yl)-N-methylmethanamine]",10 to 30 mg/kg,+ (LOQ≤ + <5%),+ (LOQ≤ + <5%),++ (5%≤ ++ <25%),++ (5%≤ ++ <25%),++ (5%≤ ++ <25%),+ (LOQ≤ + <5%),++ (5%≤ ++ <25%),+ (LOQ≤ + <5%),+ (LOQ≤ + <5%)
"CNC[C@@H]1OCCc2c(Cl)cccc21 [Example 33, (R)-1-(5-chloroisochroman-1-yl)-N-methylmethanamine]",< 3 mg/kg,+ (LOQ≤ + <5%),++ (5%≤ ++ <25%),++ (5%≤ ++ <25%),++ (5%≤ ++ <25%),++++ (50%≤ ++++),+ (LOQ≤ + <5%),+ (LOQ≤ + <5%),++ (5%≤ ++ <25%),+++ (25%≤ +++ <50%)
"NC[C@@H]1OCCc2cc(F)ccc21 [Example 34, (R)-(6-fluoroisochroman-1-yl)methanamine]",< 3 mg/kg,+ (LOQ≤ + <5%),++ (5%≤ ++ <25%),++ (5%≤ ++ <25%),++ (5%≤ ++ <25%),++ (5%≤ ++ <25%),++ (5%≤ ++ <25%),+++ (25%≤ +++ <50%),+ (LOQ≤ + <5%),+++ (25%≤ +++ <50%)
"NC[C@@H]1OCCc2cccc(F)c21 [Example 35, (R)-(8-fluoroisochroman-1-yl)methanamine]",< 3 mg/kg,++ (5%≤ ++ <25%),++ (5%≤ ++ <25%),++ (5%≤ ++ <25%),++ (5%≤ ++ <25%),++++ (50%≤ ++++),+ (LOQ≤ + <5%),++ (5%≤ ++ <25%),++ (5%≤ ++ <25%),++++ (50%≤ ++++)
"CNC[C@H]1OCCc2cccc(Cl)c21 [Example 36, (S)-1-(8-chloroisochroman-1-yl)-N-methylmethanamine]",3 to 10 mg/kg,+ (LOQ≤ + <5%),+ (LOQ≤ + <5%),++ (5%≤ ++ <25%),++ (5%≤ ++ <25%),+ (LOQ≤ + <5%),+ (LOQ≤ + <5%),++ (5%≤ ++ <25%),+ (LOQ≤ + <5%),+++ (25%≤ +++ <50%)
"CNC[C@@H]1OCCc2cccc(Cl)c21 [Example 37, (R)-1-(8-chloroisochroman-1-yl)-N-methylmethanamine]",< 3 mg/kg,+ (LOQ≤ + <5%),++ (5%≤ ++ <25%),+ (LOQ≤ + <5%),++ (5%≤ ++ <25%),++ (5%≤ ++ <25%),+ (LOQ≤ + <5%),++ (5%≤ ++ <25%),+ (LOQ≤ + <5%),++++ (50%≤ ++++)
"CNC[C@H]1OCCc2c(C)cccc21 [Example 38, (S)-N-methyl-1-(5-methylisochroman-1-yl)methanamine]",< 3 mg/kg,+ (LOQ≤ + <5%),++ (5%≤ ++ <25%),++ (5%≤ ++ <25%),+ (LOQ≤ + <5%),++ (5%≤ ++ <25%),+ (LOQ≤ + <5%),++ (5%≤ ++ <25%),++ (5%≤ ++ <25%),+++ (25%≤ +++ <50%)
"CNC[C@@H]1OCCc2c(C)cccc21 [Example 39, (R)-N-methyl-1-(5-methylisochroman-1-yl)methanamine]",< 3 mg/kg,+ (LOQ≤ + <5%),++ (5%≤ ++ <25%),++ (5%≤ ++ <25%),++ (5%≤ ++ <25%),++++ (50%≤ ++++),+ (LOQ≤ + <5%),++ (5%≤ ++ <25%),+ (LOQ≤ + <5%),+++ (25%≤ +++ <50%)
"CNC[C@H]1OCCc2cccc(C)c21 [Example 40, (S)-N-methyl-1-(8-methylisochroman-1-yl)methanamine]",< 3 mg/kg,+ (LOQ≤ + <5%),+ (LOQ≤ + <5%),+++ (25%≤ +++ <50%),+ (LOQ≤ + <5%),++ (5%≤ ++ <25%),+ (LOQ≤ + <5%),++ (5%≤ ++ <25%),++ (5%≤ ++ <25%),+++ (25%≤ +++ <50%)
"CNC[C@@H]1OCCc2cccc(C)c21 [Example 41, (R)-N-methyl-1-(8-methylisochroman-1-yl)methanamine]",< 3 mg/kg,+ (LOQ≤ + <5%),++ (5%≤ ++ <25%),++ (5%≤ ++ <25%),+ (LOQ≤ + <5%),++ (5%≤ ++ <25%),+ (LOQ≤ + <5%),++++ (50%≤ ++++),++ (5%≤ ++ <25%),++++ (50%≤ ++++)
